# According to patent US11794009B2, “Devices, systems and methods for treating urological and gastrointestinal disorders by electrical stimulation of the foot” (priority 2014, dated 2023):
# Key:
# [1] = system: bladder overactivity induced by 0.25% acetic acid (AA) irritation; experiment: Cystometrogram (CMG) bladder capacity during 0.25% acetic acid (AA) infusion in anesthetized cats, duloxetine / WAY100635 with and without foot stimulation; assay type: in vivo, cat
# Method: Experiments were performed in a total of 8 adult anesthetized cats (5 female and 3 male cats between 3.1-4.4 kg). Each cat was anesthetized with isoflurane (2-3% in O2) during surgery and then changed to α-chloralose (65 mg/kg, supplemented as necessary) anesthesia during data collection. A pulse oximeter (9847V, Nonin Medical Inc., Plymouth, MN, USA) with the sensor attached to the tongue was used to monitor heart rate and blood oxygen saturation. Catheters were inserted in the right cephalic vein and right carotid artery for intravenous infusion of drugs and monitoring systemic blood pressure, respectively. Airway access was secured with a tracheostomy tube. Ureters were accessed through a midline abdominal incision and drained externally. The bladder was then cannulated with a double lumen catheter through a small cut at the proximal urethra to infuse saline or 0.25% AA and simultaneously measure bladder pressure. The proximal urethra was tied to prevent leakage. Fur was removed from the right hind foot and two self-adhesive pad electrodes (Grass FE10ND, Astro-Medical Inc., Mentor, OH, USA; diameter 1 cm) were attached to the skin at the bottom of the foot. One electrode was at the front of the foot and the other was at the heel (Chen G et al. Post-stimulation inhibitory effect on reflex bladder activity induced by activation of somatic afferent nerves in the foot. J Urol 187: 338-343, 2012; Tai C et al. Suppression of bladder overactivity by activation of somatic afferent nerves in the foot. BJU Int 107: 303-309, 2011).
# Uniphasic rectangular pulses (5 Hz frequency, 0.2 ms pulsewidth) were delivered to the surface electrodes on the foot. Stimulation intensity threshold (T) was defined as the minimal intensity to induce a toe twitch. […] BJU Int 107: 303-309, 2011). Initially the bladder capacity was determined during cystometrograms (CMGs) by slowly infusing the bladder with saline. Multiple CMGs were performed to ensure reproducibility of the saline control capacity.
# Bladder capacity was defined as the bladder volume threshold required to induce a micturition contraction of large amplitude (>30 cm H2O) and long duration (>20 seconds). Then, repeated CMGs were performed with infusion of 0.25% AA to irritate the bladder, activate nociceptive bladder afferent C-fibers, and induce bladder overactivity. When the bladder capacity stabilized, four CMGs were performed with AA infusion (Infusion rate=2 mL/min) prior to the administration of duloxetine: (1) control without stimulation, (2) during 2 T stimulation, (3) during 4 T stimulation, and (4) control without stimulation to determine any post-stimulation effect. The bladder was emptied at the end of each CMG and a 3-5 minute rest period was inserted between CMGs.
# After the pre-drug CMGs were performed, increasing cumulative doses (0.003, 0.01, 0.03, 0.1, 0.3, 1, and 3 mg/kg, i.v.) of duloxetine (Selleck Chemicals, Houston, TX) were given to determine the drug effect on bladder capacity. Ten minutes after administering each dose of duloxetine, the four CMGs were again performed with AA infusion under different conditions (control, 2 T stimulation, 4 T stimulation, and post-stimulation control). The four repeated CMGs were completed within 40-60 minutes. In 4 cats 50-70 minutes after giving the maximal dose of duloxetine (3 mg/kg), WAY100635 (Sigma-Aldrich, St. Louis, MO), a 5HT1A antagonist, was administered (0.5 mg/kg, i.v.) to block 5HT1A inhibitory autoreceptors on serotonergic neurons in the raphe nucleus in an attempt to enhance the serotonergic inhibitory influence of duloxetine on bladder reflexes. Five minutes after administration of WAY100635, we performed control CMGs without stimulation to examine the combined effect of WAY100635 and duloxetine on bladder capacity.
# For each CMG, bladder capacity was normalized to the initial saline control capacity in the same animal, which allowed for comparisons between animals.
# [2] = system: bladder overactivity induced by 0.25% acetic acid (AA) irritation; details: 0.5168 mg/kg dose alone (references 20, 31, 36); cited from earlier work
# [3] = system: bladder overactivity induced by 0.25% acetic acid (AA) irritation; experiment: Cystometrogram (CMG) bladder capacity during 0.25% acetic acid (AA) infusion in anesthetized cats, tolterodine with and without foot stimulation; assay type: in vivo, cat; details: for bladder capacity: AA infusion
# Method: Experiments were conducted in a total of 6 adult cats (4 female and 2 male cats between 2.8-3.8 kg) under achloralose anesthesia (65 mg/kg, supplemented as necessary) after induction with isoflurane (2-3% in O2). Heart rate and blood oxygen level were monitored with a pulse oximeter (9847 V, Nonin Medical Inc., Plymouth, MN, USA) that was attached to the tongue. Systemic blood pressure was monitored via a catheter in the right carotid artery. These physiological parameters were monitored to ensure that the animal's vital functions remained relatively stable during the entire experiment. Drugs or fluids were administered through a catheter in the right cephalic vein and airway access was secured with a tracheostomy tube. Ureters were accessed through a midline abdominal incision and drained externally. The bladder was cannulated through the urethra with a double lumen catheter to infuse (1-2 ml/min) saline or 0.25% acetic acid (AA) via one lumen and measure bladder pressure via another lumen. A ligature was tied around the proximal urethra to prevent leakage. Fur was removed from the foot and two self-adhesive pad electrode (Grass FE10ND, Astro-Medical Inc., Mentor, OH, USA; diameter 1 cm) were attached to the skin at the bottom of the left hind foot. One electrode was at the front of the foot and the other was at the heel.
# Uniphasic rectangular pulses (5 Hz frequency, 0.2 ms pulsewidth) were delivered to the skin electrodes on the foot. Threshold (T) stimulation intensity (3-16 V), which was defined as the minimal intensity to induce an observable toe twitch, was determined by slowly increasing the stimulation intensity at the beginning of the experiment. […] The initial bladder capacity was determined during a cystometrogram (CMG) by slowly infusing the bladder with saline. Bladder capacity was defined as the bladder volume threshold to induce a bladder reflex contraction of large amplitude (>30 cm H2O) and long duration (>20 seconds).
# Multiple CMGs were performed to determine reproducibility of the saline control capacity. Then, repeated CMGs were performed with AA infusion to irritate the bladder, activate nociceptive bladder C-fiber afferents, and induce bladder overactivity. Once the irritated bladder capacity was stabilized, four CMGs were performed prior to drug administration: 1. control CMG without stimulation; 2. CMG during 2 T stimulation; 3. CMG during 4 T stimulation; and 4. control CMG without stimulation to determine any post-stimulation effect. Increasing cumulative doses of tolterodine (tolterodine L-tartrate, Tocris Bioscience, Bristol, UK) were then administered (0.003, 0.01, 0.03, 0.1, and 0.3 mg/kg, i.v.). Ten minutes after administering each dose of tolterodine, the CMGs were performed again under the four different conditions (control, 2 T stimulation, 4 T stimulation, and post-stimulation control) to determine the drug effect on bladder capacity. The bladder was emptied after each CMG followed by a 3-5 min rest period to allow the distended detrusor to recover.
# For the repeated CMG recordings, bladder capacity was normalized to the initial saline control capacity in the same animal to allow comparisons between animals. Capacity measurements under the same conditions were averaged and reported as mean±standard error of the mean (SEM). The mean amplitude of the bladder reflex contraction was also measured during each CMG and normalized to the AA control CMG to determine the effect of tolterodine on detrusor contractility. Statistical significance (p<0.05) was detected by ANOVA followed by Dunnett or Bonferroni post-tests.
structure (smiles),measurement,setting,value
COc1ccccc1N1CCN(CCN(C(=O)C2CCCCC2)c2ccccn2)CC1 [WAY100635],bladder capacity,"[1]; WAY100635 0.5168 mg/kg i.v. after final 3 mg/kg dose of duloxetine, no stimulation, N=4 cats, p=0.008",162.2±22.5 % of saline control
same,effect of WAY100635 alone on bladder capacity,[2],does not affect bladder capacity
CNCC[C@H](Oc1cccc2ccccc12)c1cccs1 [duloxetine],effect on AA-induced overactivity,"[1]; 3 mg/kg i.v., absence of stimulation",completely removed AA-induced overactivity
same,post-stimulation effect on bladder capacity,[1]; after 2 T and 4 T stimulation in duloxetine treated animals,absence of a post-stimulation effect
same,effect of foot stimulation on capacity when combined with duloxetine,[1]; after doses 0.003 mg/kg to 0.03 mg/kg i.v.,significantly (p<0.05) increased capacity
same,effect of foot stimulation on capacity when combined with duloxetine,[1]; after doses between 0.1 mg/kg and 3 mg/kg i.v.,did not significantly increase capacity
same,bladder capacity,"[1]; after final 3 mg/kg dose of duloxetine, before WAY100635, no stimulation, N=4 cats",117.3±17.6 % of saline control
same,effect on bladder capacity during AA infusion,"[1]; doses 0.1-3 mg/kg i.v., absence of stimulation",dose-dependently and significantly (p<0.05) increased bladder capacity
same,bladder capacity,"[1]; duloxetine 3 mg/kg i.v. (cumulative), AA infusion, absence of stimulation, N=8 cats",109±15.5 % of saline control
same,bladder capacity,"[1]; duloxetine 3 mg/kg i.v., AA infusion, during 2 T foot stimulation (5 Hz, 0.2 ms)",129.3±23.2 % of saline control
same,bladder capacity,"[1]; duloxetine 3 mg/kg i.v., AA infusion, during 4 T foot stimulation (5 Hz, 0.2 ms)",129.2±25.8 % of saline control
Cc1ccc(O)c([C@H](CCN(C(C)C)C(C)C)c2ccccc2)c1 [tolterodine],effect on control bladder capacity,"[3]; 0.1 mg/kg i.v., absence of stimulation",not effective in significantly increasing control bladder capacity
same,amplitude of bladder reflex contractions,"[3]; 0.003-0.3 mg/kg i.v., control, 2 T or 4 T foot stimulation CMGs",did not alter the amplitude of bladder reflex contractions
same,total inhibitory effect of tolterodine combined with foot stimulation,"[3]; 2 T and 4 T foot stimulation, every dosage",additive
same,post-stimulation effect on bladder capacity,"[3]; after 2 T and 4 T stimulation, every dose of tolterodine",no post-stimulation effect was observed
same,effect on bladder capacity during AA infusion CMGs,"[3]; cumulative doses 0.003-0.3 mg/kg i.v., absence of foot stimulation",increased bladder capacity dose dependently
same,bladder capacity,"[3]; tolterodine 0.1 mg/kg i.v., 4 T foot stimulation",97.0±11.2 % of saline control
same,bladder capacity,"[3]; tolterodine 0.3 mg/kg i.v. (cumulative), absence of foot stimulation, N=6 cats",65.6±15.5 % of the saline control capacity
same,bladder capacity,"[3]; tolterodine 0.3 mg/kg i.v., 2 T foot stimulation",86.2±6.2 % of the saline control
same,bladder capacity,"[3]; tolterodine 0.3 mg/kg i.v., 4 T foot stimulation",107.9±10.6 % of the saline control
same,threshold pressure for inducing a micturition reflex,"[3]; tolterodine 0.3 mg/kg i.v., 5.0±1.3 cm H2O before treatment",8.1±1.4 cm H2O
